From a melting point compilation (Tetko et al.; mined from patent text by program, amines drawn as free bases though some values may be those of a salt)

| Compound | melting point [°C] |
| --- | --- |
| N#CCC(=O)c1ccccc1C1(c2ccccc2)OCC(CCl)O1 (stereo not drawn) | 107 to 110 |
| COCC1COC(Cn2cncn2)(c2ccc(Cl)cc2Cl)O1 (stereo not drawn) | 64 to 74 |
| Nc1nc(NCCOc2ccccc2)nc(-c2cc(Cl)ccc2Cl)n1 | 172 to 173 |
| CCOC(=O)c1c(N2CCN(Cc3ccccc3)CC2)n[nH]c1C | 124 to 126 |
| Clc1ccc([C@H]2Cc3cnc(Nc4ccccc4)nc3-c3ccccc32)cc1Cl | 156 to 157 |
| CC1(C)OCC(N(c2nc(Cl)nc(N(C3COC(C)(C)OC3)C3COC(C)(C)OC3)n2)C2COC(C)(C)OC2)CO1 | 133 to 135 |
| NCc1cccc(C2CCN(c3nc4c(cc3F)c(=O)c(C(=O)O)cn4C3CC3)C2)c1 (stereo not drawn) | 274 to 276 |
| CC(C)(C)OC(=O)N1CCC(c2nc3cc(-c4ccc(-n5cnnn5)cc4F)ccc3o2)CC1 | 203 to 207 |
| CCC1(CCOC2CCCCO2)C(=O)N2CC=CC(C(=O)OC)N2C1=O (stereo not drawn) | 96 to 97 |
| C=C(C(=O)OC)C(=O)c1ccc(OC)cc1 | 75 to 76 |
| Cc1c(C)c2c(c(C)c1OCCc1ccccc1)C(c1ccc(C(C)C)cc1)C(C)(C)O2 (stereo not drawn) | 72 to 74 |
| CNc1c(F)ccc(-n2cc(C(=O)O)c(=O)c3cc(F)c(NC)c(Cl)c32)c1F | 245 to 248 |
| Cc1c(CC(=O)O)c2cc(O)c(F)cc2n1C(=O)c1ccccc1 | 159 to 161 |
| CCCCn1c(=O)c2c(ncn2S(C)(=O)=O)n(CCCC)c1=O | 98 to 100 |
| O=c1[nH]nc2n1-c1ccc(N3CCCC3)nc1C(c1ccccc1Cl)=NC2 | 228 to 230 |
| O=C(Nc1ccc2ccc(Cl)nc2n1)c1ccc(F)cc1 | 236 |
| CC(=O)CC(=O)C=Cc1ccc2[nH]ccc2c1 | 136 to 137 |
| Cc1ccc(-c2cc(F)c(F)cc2-c2ccc(S(C)(=O)=O)cc2)cn1 | 141 to 142 |
| COCc1cc(Cl)n2nc(SCc3ccccc3)nc2n1 | 79 |

| Compound | melting point [°C] |
| --- | --- |
| c1ccc2cc(-c3cc4nccnc4[nH]3)ncc2c1 | 281 to 285 |
| CC1=C(c2cccc(C(F)(F)F)c2)n2ncc3c(=O)nc(NC(C)C)n(c32)C1 | 284 to 286 |
| CS(=O)(=O)N1CCC(COCc2cc(C(F)(F)F)cc(C(F)(F)F)c2)(c2ccccc2)CC1 | 102 to 104 |
| CCOC(=O)C1Cc2ccc(C(=O)c3ccc(NC(C)=O)c(Cl)c3)cc2C1 (stereo not drawn) | 126 to 127 |
| Cc1cccc(N2CCN(c3ccc(Br)nn3)CC2)c1 | 146 |
| Cc1cc(O)c(C(=O)Nc2ccc(S(=O)(=O)C(F)(F)F)cc2Cl)c(C)c1S(C)=O (stereo not drawn) | 205 to 206 |
| Nc1ccccc1C(=O)CCCO | 58 to 61 |
| CCOCc1cc(COc2cc(C)nc(C)c2OC)ccc1-c1ccccc1S(=O)(=O)Nc1noc(C)c1C | 78 to 82 |
| O=C(c1ccccc1)c1cc2c(s1)S(=O)(=O)CCc1cc(=O)n(-c3ccc(Cl)cc3)nc1-2 | 254 to 256 |
| NC(C=CP(=O)(O)O)(CO)CCc1ccc(Sc2cccc(OCc3ccccc3)c2)cc1Cl (stereo not drawn) | 245 to 248 |
| Nn1c(C(F)(F)F)cc(=O)n(-c2ccc(O)cc2)c1=O | 150 to 155 |
| Cc1nc(N2CCN(CC3CC3)C2=O)sc1C(=O)NCc1ccccn1 | 148 to 151 |
| O=C1c2ccccc2C(=O)N1CCn1ccnc1 | 151 to 153 |
| Cc1[nH]c(=O)n(-c2cc(C(=O)OC(C)C)c(Cl)cc2F)c(=O)c1C#N | 189 to 193 |
| O=C(OCC1CC1)c1ncn2c1[C@@H]1CCCN1C(=O)c1c-2ccc(Cl)c1Cl | 185 to 186 |
| CC(C)(C)C(=O)OC1CC(C)(C)N(OC(=O)C(C)(C)C)C(C)(C)C1 | 43 to 46 |
| CSC(C)=NOC(=O)NCSN(C(C)(C)C)P1(=O)OCC(C)(C)CO1 | 134 |
| Cc1ccc2cccc(OCc3c(Cl)ccc(OCCN)c3Cl)c2n1 | 123 to 125 |
| OC(CNCCCCCCOCCCc1ccc(N2CCCCC2)cc1)c1ccc2c(n1)COC(c1ccccc1)O2 (stereo not drawn) | 75 to 76 |
